Kd, IC50 and inhibition data for 14 molecules are collected here from patent US10844038B2, “1,2-dithiolane compounds useful in neuroprotection, autoimmune and cancer diseases and conditions” (SABILA BIOSCIENCES LLC, priority 2016, dated 2020).

A word on the Kd: it is the concentration at which binding is half-saturated. Broadly, the inhibition is how much of the control response was suppressed.

Test [1] concerns the target MEK5 (Homo sapiens (Human), UniProt Q13163). Briefly: KINOMEscan competition binding assay (Kd). As to conditions: Table 9, read-out: Kd Values Against Representative MEK5 Kinase: MEK5. On the procedure: (§1) KINOMEscan™ is based on a competition binding assay that quantitatively measures the ability of a test compound of the invention to compete with an immobilized, active-site directed ligand. The Kinase assay is performed by combining three components: DNA-tagged kinase; immobilized ligand; and a test compound. The ability of the test compound to compete with the immobilized ligand is measured via quantitative PCR of the DNA tag.
(§2) For most assays, kinase-tagged T7 phage strains were prepared in an E. coli host derived from the BL21 strain. E. coli were grown to log-phase and infected with T7 phage and incubated with shaking at 32° C. until lysis. The lysates were centrifuged and filtered to remove cell debris. The remaining kinases were produced in HEK-293 cells and subsequently tagged with DNA for qPCR detection. Streptavidin-coated magnetic beads were treated with biotinylated small molecule ligands for 30 minutes at room temperature to generate affinity resins for kinase assays. The liganded beads were blocked with excess biotin and washed with blocking buffer (SeaBlock (Pierce), 1% BSA, 0.05% Tween 20, 1 mM DTT) to remove unbound ligand and to reduce nonspecific binding. […] All reactions were performed in polystyrene 96-well plates in a final volume of 0.135 ml. […] The kinase concentration in the eluates was measured by qPCR.

Test [2] addresses mTOR (Homo sapiens (Human), UniProt P42345). Briefly: KINOMEscan competition binding assay (Kd). As to conditions: read-out: Kd Values Against mTOR Kinase: mTOR. As to the method: as §1, §2
Test [3] has as its target BTK (Homo sapiens (Human), UniProt Q06187). Briefly: KINOMEscan competition binding assay (Kd). As to conditions: read-out: Kd Values Against Representative TEC Family Kinases: BTK. As to the method: as §1, §2
The target of test [4] is T1, FYN (Homo sapiens (Human), UniProt P06241). Briefly: Radioisotope filter binding assay. The test is classed as biochemical. As to conditions: read-out: IC50 Activity Levels Against SRC Family Kinases: FYN. On the procedure: (§3) 3. Radioisotope Filter Binding Assay:
(§4) In this assay format, it directly detects the true product without the use of modified substrates or coupling enzymes (Uitdehaag, J. C., et al. Br. J. Pharmacol. 2012, 166, 858-876; Hastie, C. J., et al. Nat. Protoc. 2006, 1, 968-971) according to equation 1. Substrate+[γ−^33P]−ATP→^33P-Substrate+ADP eq 1
(§5) The protocol calls for test compound of the invention to be incubated with kinase, substrate, cofactors, and radio-isotope-labeled ATP (^33P-gamma-ATP). The reaction mixtures are then spotted onto filter papers which bind the radioisotope labeled catalytic product. Unreacted phosphate is removed via washing. The reagents used include base reaction buffer; 20 mM Hepes (pH 7.5), 10 mM MgCl2, 1 mM EGTA, 0.02% Brij35, 0.02 mg/ml BSA, 0.1 mM Na3VO4, 2 mM DTT, 1% DMSO. The reaction procedure include the following steps: (1) prepare indicated substrate in freshly prepared base reaction buffer, (2) deliver any required cofactors to the substrate solution above, (3) deliver indicated kinase into the substrate solution and gently mix, (4) deliver compounds in DMSO into the kinase reaction mixture by Acoustic technology (Echo550; nanoliter range), incubate for 20 minutes at room temperature, (5) deliver ^33P-ATP (specific activity 10 μCi/μL) into the reaction mixture to initiate the reaction, (6) incubate kinase reaction for 2 hours at room temperature, (7) reactions are spotted onto P81 ion exchange paper, (8) detect kinase activity by filter-binding method.

In test [5] the target is CSK (Homo sapiens (Human), UniProt P41240). Briefly: Rabbit reticulocyte lysate assay (KinaseSeeker competition binding). As to conditions: read-out: % Inhibition Against SRC Family Kinases: CSK. On the procedure: (§6) 1. Rabbit Reticulocyte Lysate Assay Design:
(§7) KinaseSeeker is a homogeneous competition binding assay where the displacement of an active site dependent probe by an inhibitor is measured by a change in luminescence signal. Luminescence readout translates into a highly sensitive and robust assay with low background and minimal interference from test compounds.
(§8) 10 mM stock solutions of test compounds were serially diluted in DMSO to make assay stocks. Prior to initiating IC50 determinations, the test compounds were evaluated for false positive against split-luciferase.
(§9) Each test compound was screened in duplicate against target kinase at 7 different concentrations. For kinase assays, Cfluc-kinase was translated along with Fos-Nfluc using a cell-free system (rabbit reticulocyte lysate) at 30° C. for 90 min. 24 uL aliquot of this lysate containing either 1 uL of DMSO (for no-inhibitor control) or compound solution in DMSO was incubated for 30 minutes at room temperature followed by 1 hour in presence of a kinase specific probe. 80 uL of luciferin assay reagent was added to each solution and luminescence was immediately measured on a luminometer.
(§10) The % Inhibition and % Activity Remaining was calculated using the following equation: % Inhibition=[(ALUControl−ALUSample)/ALUControl]×100 % Activity Remaining=100−% Inhibition
(§11) The % Activity was plotted against compound concentration and the IC50 was determined for each compound using a 7-point curve (Jester, B. W.; et. al. J. Am. Chem. Soc. 2010, 132, 11727-11735. Jester, B. W., et. al. J. Med. Chem. 2012, 55, 1526-1537). Biological activity of representative compounds of the disclosure are described in Table 5.

The target in test [6] is SRC (Homo sapiens (Human), UniProt P12931). The description is as above. As to conditions: at 1 μM, read-out: % Inhibition Against SRC Family Kinases: SRC. As to the method: as §6, §7, §8, §9, §10, §11
In test [7] the target is FGR (Homo sapiens (Human), UniProt P09769). Described as above. As to conditions: at 1 μM, read-out: % Inhibition Against SRC Family Kinases: FGR. As to the method: as §6, §7, §8, §9, §10, §11
For test [8], the target named is HCK (Homo sapiens (Human), UniProt P08631). Described as above. As to conditions: at 1 μM, read-out: % Inhibition Against SRC Family Kinases: HCK. On the procedure: as §6, §7, §8, §9, §10, §11
For test [9], the target named is YES1 (Homo sapiens (Human), UniProt P07947). The description is as above. As to conditions: at 1 μM, read-out: % Inhibition Against SRC Family Kinases: YES1. On the procedure:
as §6, §7, §8, §9, §10, §11

The target in test [10] is T1, FYN. The test is described as above. As to conditions: read-out: % Inhibition Against SRC Family Kinases: FYN. On the procedure: as §6, §7, §8, §9, §10, §11
The target in test [11] is LYN (Homo sapiens (Human), UniProt P07948). Described as above. As to conditions: read-out: % Inhibition Against SRC Family Kinases: LYN. As to the method:
as §6, §7, §8, §9, §10, §11

Test [12] has as its target mTor/FRAP1 (Homo sapiens (Human), UniProt P42345). Put plainly: Radioisotope filter binding assay. The format is biochemical. As to conditions: read-out: IC50 Activity Levels Against Various PI3K and mTor Kinases: mTor/FRAP1. As to the method: as §3, §4, §5
Test [13] concerns the target BRAF (Homo sapiens (Human), UniProt P15056). Put plainly: KINOMEscan competition binding assay (Kd). As to conditions: read-out: Kd Values Against MAPK Pathway Kinases: BRAF. As to the method: as §1, §2
Test [14] has as its target Bruton Tyrosine Kinase (BTK) (Homo sapiens (Human), UniProt Q06187). Briefly: Rabbit reticulocyte lysate assay (KinaseSeeker competition binding). As to conditions: read-out: IC50 Activity Levels Against Bruton Tyrosine Kinase: BTK. On the procedure:
as §6, §7, §8, §9, §10, §11

Sequence of BTK (Q06187 whole entry): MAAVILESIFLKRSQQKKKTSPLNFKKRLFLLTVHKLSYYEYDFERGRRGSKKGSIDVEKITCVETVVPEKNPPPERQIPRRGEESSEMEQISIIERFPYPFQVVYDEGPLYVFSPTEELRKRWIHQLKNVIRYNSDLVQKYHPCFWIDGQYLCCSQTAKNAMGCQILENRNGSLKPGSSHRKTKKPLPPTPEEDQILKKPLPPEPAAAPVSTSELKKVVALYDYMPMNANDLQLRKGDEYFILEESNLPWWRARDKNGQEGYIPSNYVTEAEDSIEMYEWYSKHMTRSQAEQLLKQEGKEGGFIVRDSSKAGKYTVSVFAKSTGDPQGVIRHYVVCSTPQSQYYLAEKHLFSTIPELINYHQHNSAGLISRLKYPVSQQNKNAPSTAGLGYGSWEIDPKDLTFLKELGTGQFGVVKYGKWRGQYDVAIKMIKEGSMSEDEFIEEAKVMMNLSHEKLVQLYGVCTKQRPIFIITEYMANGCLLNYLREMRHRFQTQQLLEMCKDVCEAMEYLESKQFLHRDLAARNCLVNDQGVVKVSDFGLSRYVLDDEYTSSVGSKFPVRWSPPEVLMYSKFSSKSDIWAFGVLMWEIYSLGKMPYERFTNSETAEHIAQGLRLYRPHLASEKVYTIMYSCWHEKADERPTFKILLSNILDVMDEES
Sequence of MEK5 (Q13163 whole entry): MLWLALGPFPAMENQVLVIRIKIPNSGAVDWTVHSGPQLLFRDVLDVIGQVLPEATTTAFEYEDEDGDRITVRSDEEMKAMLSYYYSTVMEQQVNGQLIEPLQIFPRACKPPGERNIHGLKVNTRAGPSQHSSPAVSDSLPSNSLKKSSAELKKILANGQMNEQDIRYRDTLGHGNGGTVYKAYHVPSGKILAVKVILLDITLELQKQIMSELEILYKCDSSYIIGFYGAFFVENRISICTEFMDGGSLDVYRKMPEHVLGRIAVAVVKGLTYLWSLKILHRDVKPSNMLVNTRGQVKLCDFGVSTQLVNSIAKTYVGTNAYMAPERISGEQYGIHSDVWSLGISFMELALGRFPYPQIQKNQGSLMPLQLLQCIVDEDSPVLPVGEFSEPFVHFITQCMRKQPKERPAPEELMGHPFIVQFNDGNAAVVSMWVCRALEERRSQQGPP
T1 sequence (P06241 whole entry): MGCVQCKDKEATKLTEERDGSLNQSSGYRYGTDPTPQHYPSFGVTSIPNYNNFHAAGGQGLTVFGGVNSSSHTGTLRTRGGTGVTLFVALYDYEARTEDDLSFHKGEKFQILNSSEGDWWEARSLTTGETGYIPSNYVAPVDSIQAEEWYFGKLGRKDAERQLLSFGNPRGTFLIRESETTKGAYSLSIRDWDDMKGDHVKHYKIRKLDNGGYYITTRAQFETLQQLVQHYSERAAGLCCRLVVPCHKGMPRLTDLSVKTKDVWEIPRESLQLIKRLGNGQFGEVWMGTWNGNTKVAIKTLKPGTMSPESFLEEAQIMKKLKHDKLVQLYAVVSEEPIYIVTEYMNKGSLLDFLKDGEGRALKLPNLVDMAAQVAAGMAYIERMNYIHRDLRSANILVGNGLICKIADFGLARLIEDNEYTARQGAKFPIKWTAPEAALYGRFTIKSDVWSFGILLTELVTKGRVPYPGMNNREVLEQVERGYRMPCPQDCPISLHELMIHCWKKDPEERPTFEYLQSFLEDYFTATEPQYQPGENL
Sequence of BRAF (P15056 whole entry): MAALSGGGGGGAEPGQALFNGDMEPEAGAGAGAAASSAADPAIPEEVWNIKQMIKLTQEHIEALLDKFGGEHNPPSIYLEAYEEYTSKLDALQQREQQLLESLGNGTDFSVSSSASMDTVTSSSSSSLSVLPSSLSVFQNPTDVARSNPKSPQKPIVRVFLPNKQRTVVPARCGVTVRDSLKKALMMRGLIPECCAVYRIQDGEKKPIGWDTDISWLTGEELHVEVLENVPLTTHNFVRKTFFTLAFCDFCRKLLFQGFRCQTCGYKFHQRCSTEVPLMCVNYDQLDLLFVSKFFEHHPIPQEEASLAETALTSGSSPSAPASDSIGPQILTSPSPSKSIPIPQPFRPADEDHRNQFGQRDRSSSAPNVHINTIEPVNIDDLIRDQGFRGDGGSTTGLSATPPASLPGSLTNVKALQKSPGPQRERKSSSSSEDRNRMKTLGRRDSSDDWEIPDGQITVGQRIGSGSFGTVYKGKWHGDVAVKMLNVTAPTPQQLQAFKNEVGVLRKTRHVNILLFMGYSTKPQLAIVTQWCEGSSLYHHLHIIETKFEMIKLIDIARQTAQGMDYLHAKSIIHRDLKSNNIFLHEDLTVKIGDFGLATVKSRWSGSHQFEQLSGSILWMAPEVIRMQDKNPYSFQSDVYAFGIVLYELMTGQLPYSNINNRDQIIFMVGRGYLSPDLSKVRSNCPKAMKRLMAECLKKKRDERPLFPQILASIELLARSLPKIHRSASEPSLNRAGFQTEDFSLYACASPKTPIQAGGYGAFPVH
Sequence of YES1 (P07947 whole entry): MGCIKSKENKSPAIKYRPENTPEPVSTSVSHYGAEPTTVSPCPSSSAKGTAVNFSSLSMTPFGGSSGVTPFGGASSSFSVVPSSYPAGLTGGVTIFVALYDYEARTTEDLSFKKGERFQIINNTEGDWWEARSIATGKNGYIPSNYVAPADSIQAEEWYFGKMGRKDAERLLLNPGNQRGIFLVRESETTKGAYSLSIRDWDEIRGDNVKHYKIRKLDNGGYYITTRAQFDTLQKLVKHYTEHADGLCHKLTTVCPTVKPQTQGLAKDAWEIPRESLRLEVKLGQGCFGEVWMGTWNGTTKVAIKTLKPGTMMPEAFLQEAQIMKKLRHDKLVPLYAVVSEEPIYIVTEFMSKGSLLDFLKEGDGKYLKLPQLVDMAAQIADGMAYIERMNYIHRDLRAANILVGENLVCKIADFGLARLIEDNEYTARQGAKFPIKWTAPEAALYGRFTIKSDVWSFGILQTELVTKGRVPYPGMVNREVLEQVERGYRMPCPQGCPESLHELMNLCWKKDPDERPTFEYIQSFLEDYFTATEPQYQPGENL
Sequence of LYN (P07948 whole entry): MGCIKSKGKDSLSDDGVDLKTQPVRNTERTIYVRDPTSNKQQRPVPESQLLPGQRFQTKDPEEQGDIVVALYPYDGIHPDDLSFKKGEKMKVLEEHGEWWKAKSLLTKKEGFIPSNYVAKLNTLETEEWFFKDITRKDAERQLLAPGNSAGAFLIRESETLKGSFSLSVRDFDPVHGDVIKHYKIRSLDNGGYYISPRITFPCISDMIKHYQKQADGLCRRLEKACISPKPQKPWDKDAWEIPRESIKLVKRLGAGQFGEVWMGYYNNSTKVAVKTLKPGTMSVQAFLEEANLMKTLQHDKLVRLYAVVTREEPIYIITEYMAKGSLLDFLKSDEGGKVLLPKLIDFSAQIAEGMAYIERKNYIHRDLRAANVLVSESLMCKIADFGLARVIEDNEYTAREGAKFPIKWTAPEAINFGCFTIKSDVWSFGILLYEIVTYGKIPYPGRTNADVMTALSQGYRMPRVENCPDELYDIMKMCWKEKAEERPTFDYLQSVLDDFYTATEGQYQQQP
Sequence of SRC (P12931 whole entry, looked up): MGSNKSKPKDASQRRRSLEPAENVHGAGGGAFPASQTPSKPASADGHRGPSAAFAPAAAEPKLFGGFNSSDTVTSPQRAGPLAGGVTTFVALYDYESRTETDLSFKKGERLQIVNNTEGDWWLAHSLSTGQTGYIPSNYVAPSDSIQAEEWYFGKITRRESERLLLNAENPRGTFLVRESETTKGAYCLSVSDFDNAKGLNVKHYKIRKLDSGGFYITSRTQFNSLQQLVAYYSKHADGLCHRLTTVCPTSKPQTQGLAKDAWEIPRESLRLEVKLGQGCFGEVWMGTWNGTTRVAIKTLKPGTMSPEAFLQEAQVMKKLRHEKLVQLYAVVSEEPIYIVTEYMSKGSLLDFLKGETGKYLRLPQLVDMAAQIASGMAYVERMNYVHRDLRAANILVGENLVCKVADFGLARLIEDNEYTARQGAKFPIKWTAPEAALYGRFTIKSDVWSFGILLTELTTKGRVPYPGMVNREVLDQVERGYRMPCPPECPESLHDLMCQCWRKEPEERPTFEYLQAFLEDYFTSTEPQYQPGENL
Sequence of HCK (P08631 whole entry): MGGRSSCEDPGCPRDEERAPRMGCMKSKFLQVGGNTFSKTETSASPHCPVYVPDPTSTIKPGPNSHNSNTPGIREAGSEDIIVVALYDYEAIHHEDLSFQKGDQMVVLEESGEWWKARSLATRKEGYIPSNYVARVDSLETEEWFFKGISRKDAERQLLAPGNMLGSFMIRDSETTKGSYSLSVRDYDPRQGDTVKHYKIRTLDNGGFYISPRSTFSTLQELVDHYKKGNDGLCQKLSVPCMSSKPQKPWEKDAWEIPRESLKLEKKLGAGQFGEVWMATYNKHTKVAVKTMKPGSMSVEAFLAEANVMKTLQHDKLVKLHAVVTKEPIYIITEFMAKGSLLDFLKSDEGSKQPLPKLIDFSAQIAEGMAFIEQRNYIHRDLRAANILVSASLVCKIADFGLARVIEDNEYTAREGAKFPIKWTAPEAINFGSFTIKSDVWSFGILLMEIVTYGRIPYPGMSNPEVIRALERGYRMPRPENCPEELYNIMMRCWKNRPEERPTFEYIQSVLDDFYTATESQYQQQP
Sequence of CSK (P41240 whole entry): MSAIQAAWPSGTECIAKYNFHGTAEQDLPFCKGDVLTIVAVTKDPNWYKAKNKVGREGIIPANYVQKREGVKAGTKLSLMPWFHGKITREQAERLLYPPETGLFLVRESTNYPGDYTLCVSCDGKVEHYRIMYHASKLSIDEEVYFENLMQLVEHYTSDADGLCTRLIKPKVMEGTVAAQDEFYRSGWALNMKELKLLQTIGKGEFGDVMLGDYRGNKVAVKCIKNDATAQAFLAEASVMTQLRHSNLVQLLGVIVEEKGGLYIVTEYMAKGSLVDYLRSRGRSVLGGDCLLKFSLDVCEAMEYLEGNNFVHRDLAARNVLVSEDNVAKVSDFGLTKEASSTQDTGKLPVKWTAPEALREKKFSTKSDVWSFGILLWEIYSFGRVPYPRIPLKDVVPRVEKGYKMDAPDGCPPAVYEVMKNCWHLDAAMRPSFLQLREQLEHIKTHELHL
Sequence of Bruton Tyrosine Kinase (BTK) (Q06187 whole entry): as the sequence (Q06187 whole entry) above

Regarding `COc1ccc(-c2nn(CC3SSCC3O)c3ncnc(N)c23)cc1` (stereo not drawn) [36 B.], the Kd in test [1] was in the range of 5 to 99 nM; in test [2] it was 100 to 999 nM.
Take `Nc1ncnc2c1c(-c1ccc(Oc3ccccc3)cc1)nn2C[C@@H]1SSC[C@@H]1OCc1ccccc1` (relative stereo) [Example 40, cis 1-((4-(Benzyloxy)-1,2-dithiolan-3-yl)methyl)-3-(4-phenoxyphenyl)-1H-pyrazolo[3,4-d]pyrimidin-4-amine]: the values for the Kd in [3] and in test [1] were 100 to 999 nM and 5 to 99 nM, respectively. In addition, the IC50 in test [4] is 1000 to 10000 nM.
On to `Nc1ncnc2c1c(-c1ccc(Oc3ccccc3F)cc1)nn2CC1SSCC1O` (stereo not drawn) [Example 63, trans 3-((4-Amino-3-(4-(2-fluorophenoxyphenyl)-1H-pyrazolo[3,4-d]pyrimidin-1-yl)methyl)-1,2-dithiolan-4-ol], for which the IC50 in test [4] fell in the range of 5 to 99 nM.
With `Nc1ncnc2c1c(-c1ccccc1)nn2C[C@@H]1SSC[C@H]1O` (relative stereo) [Example 28, trans 3-((4-Amino-3-phenyl-1H-pyrazolo[3,4-d]pyrimidin-1-yl)methyl)-1,2-dithiolan-4-ol], the Kd in test [1] is 5 to 99 nM.
For `CO[C@H]1CSS[C@H]1Cn1nc(-c2ccc(Oc3ccccc3)cc2)c2c(N)ncnc21` (relative stereo) [Example 38, cis 1-((4-Methoxy-1,2-dithiolan-3-yl)methyl)-3-(4-phenoxyphenyl)-1H-pyrazolo[3,4-d]pyrimidin-4-amine], the Kd is 5 to 99 nM in test [3] and less than 5 nM in test [1].
Take `Nc1ncnc2c1c(-c1ccc(Oc3ccccc3)cc1)nn2C[C@@H]1SSC[C@H]1O` [Example 43 A., (3S,4R)-3-((4-Amino-3-(4-phenoxyphenyl)-1H-pyrazolo[3,4-d]pyrimidin-1-yl)methyl)-1,2-dithiolan-4-ol]: the inhibition at 1 µM in [5] was 50%; in test [6], 49%; in test [7], 84%; in test [8], 73%; in [9], 90%; in test [10], 33%. The inhibition at 1 µM in [11] was determined as 33%.
Turning to `Nc1ncnc2c1c(C#Cc1ccccc1)nn2C[C@@H]1SSC[C@H]1O` (relative stereo) [Example 52, trans 3-(4-Amino-3-(phenylethynyl)-1H-pyrazolo[3,4-d]pyrimidin-1-yl)methyl-1,2-dithiolan-4-ol], in [12], the IC50 fell in the range of 1000 to 10000 nM.
Regarding `Nc1ncnc2c1c(-c1ccc(Oc3ccccc3)cc1)nn2C[C@@H]1SSC[C@@H]1O` (relative stereo) [Example 45, cis 3-((4-Amino-3-(4-phenoxyphenyl)-1H-pyrazolo[3,4-d]pyrimidin-1-yl)methyl)-1,2-dithiolan-4-ol], in test [3], the Kd is 5 to 99 nM.
As for `Nc1ncnc2c1c(C#Cc1ccccc1)nn2CC1SSCC1OC(=O)c1ccccc1` (stereo not drawn) [Example 51, trans 3-((4-Amino-3-(phenylethynyl)-1H-pyrazolo[3,4-d]pyrimidin-1-yl)methyl-1,2-dithiolan-4-yl benzoate], the IC50 in test [12] is 1000 to 10000 nM.
With `Nc1ncnc2c1c(-c1ccc(Cl)cc1)nn2C[C@@H]1SSC[C@H]1O` (relative stereo) [Example 30, trans 3-((4-Amino-3-(4-chlorophenyl)-1H-pyrazolo[3,4-d]pyrimidin-1-yl)methyl)-1,2-dithiolan-4-ol], in test [1], the Kd was less than 5 nM.
As to `Nc1ncnc2c1c(-c1ccc(Oc3ccccc3)cc1)nn2C[C@@H]1SSC[C@H]1OCc1ccccc1` (relative stereo) [Example 39, trans 1-((4-(Benzyloxy)-1,2-dithiolan-3-yl)methyl)-3-(4-phenoxyphenyl)-1H-pyrazolo[3,4-d]pyrimidin-4-amine], the Kd in test [3] was 1000 to 10000 nM; in test [1], 5 to 99 nM.
Regarding `Nc1ncnc2c1c(-c1ccc(Oc3ccccc3F)cc1)nn2CC1SSCC1OC(=O)c1ccccc1` (stereo not drawn) [Example 62, trans 3-((4-Amino-3-(4-(2-fluorophenoxyphenyl)-1H-pyrazolo[3,4-d]pyrimidin-1-yl)methyl)-1,2-dithiolan-4-yl benzoate], the IC50 in test [4] was 5 to 99 nM.
On to `Nc1ncnc2c1c(-c1ccc(Oc3ccccc3)cc1)nn2C[C@@H]1SSC[C@H]1O` (relative stereo) [Example 42, trans 3-((4-Amino-3-(4-phenoxyphenyl)-1H-pyrazolo[3,4-d]pyrimidin-1-yl)methyl)-1,2-dithiolan-4-ol], for which the Kd in test [3] is 5 to 99 nM; in [13], 1000 to 10000 nM. For the same molecule, the IC50 in [14] was in the range of 100 to 999 nM.
Consider `CO[C@@H]1CSS[C@H]1Cn1nc(-c2ccc(Oc3ccccc3)cc2)c2c(N)ncnc21` (relative stereo) [Example 37, trans 1-((4-Methoxy-1,2-dithiolan-3-yl)methyl)-3-(4-phenoxyphenyl)-1H-pyrazolo[3,4-d]pyrimidin-4-amine], for which the Kd is 5 to 99 nM in test [3], less than 5 nM in [1] and 1000 to 10000 nM in test [2]. Further, the IC50 in [4] is 5 to 99 nM.
